The test system of one assay is ornithine decarboxylase (ODC). Kind of assay: ODC assay: inhibition of TPA induction of ODC activity. It counts as in vivo. To be noted: at conc 30 (nmol); TPA-induced ODC. An excerpt:
The retinoic acid-like activity of these compounds is confirmed through the classic measure of retinoic acid activity involving the effects of retlnoic acid on ornithine decarboxylase. The original work on the correlation between retinoic acid and decrease in cell proliferation was done by Verma & Boutwell, Cancer Research, 1977, 37,2196-2201. That reference discloses that ornithine decarboxylase (ODC) activity increased precedent to polyamine biosynthesis. It has been established elsewhere that increases in polyamine synthesis can be correlated or associated with cellular proliferation. Thus, if ODC activity could be inhibited, cell hyperproliferation could be modulated. […] Activity of exemplary compounds of the present invention in the above- described ODC assay is disclosed in Table 2 which provides either IC80 (or other measured per cent inhibition at the indicated concentration) for the respective exemplary compound.
Regarding `CCOC(=O)c1ccc(C#Cc2ccc(OC3CCCCO3)c(C34CC5CC(CC(C5)C3)C4)c2)cc1` (stereo not drawn) [Compound 9], the “% of inhib” value was determined as 49%.
Consider `COC(=O)c1ccc(C#Cc2ccc(OC3CCCCO3)c(C34CC5CC(CC(C5)C3)C4)c2)cc1` (stereo not drawn) [Compound 25], for which the “% of inhib” value is recorded as 61%.

Still in this assay, the particulars now being: at conc 300 (nmol); TPA-induced ODC.
Consider `O=C(O)c1ccc(C#Cc2ccc(OC3CCCCO3)cc2)nc1` (stereo not drawn) [Compound 15, 6-[2-[[1-(2-tetrahydropyranoxy)]-4-phenyl]ethyn-1-yl]nicotinic acid], for which the “% of inhib” value is recorded as 44%.
Same read-out and setting: next, `CCOC(=O)c1ccc(C#Cc2cccc(OC3CCCCO3)c2)nc1` (stereo not drawn) [Compound 16, Ethyl 6-[2-[[1-(2-tetrahydropyranoxy)]-3-phenyl]ethyn-1-yl]nicotinate]: 52%; `CCOC(=O)c1ccc(C#Cc2ccc(C34CC5CC(CC(C5)C3)C4)c(OC3CCCCO3)c2)nc1` (stereo not drawn) [Compound 17]: 68%; `CCOC(=O)c1ccc(C#Cc2ccc(C34CC5CC(CC(C5)C3)C4)c(OC3CCCCO3)c2)cc1` (stereo not drawn) [Compound 18, Ethyl 4-[2-[[2-(1-adamantyl)-1-(2-tetrahydropyranoxy)]-5-phenyl]ethyn-1-yl]benzoate]: 45%.
The same measure, in the same setting: next, `O=C(O)c1ccc(C#Cc2ccc(C34CC5CC(CC(C5)C3)C4)c(OC3CCCCO3)c2)nc1` (stereo not drawn) [Compound 19]: 45%.

In a further assay the test system is ornithine decarboxylase (ODC).
Test: not given
The conditions noted are these: general knowledge; cited from earlier work.
On to `CCCCCCCCCCCCCC(=O)O[C@@H]1[C@@H](C)[C@@]2(O)[C@@H](C=C(CO)C[C@]3(O)C(=O)C(C)=C[C@@H]23)[C@@H]2C(C)(C)[C@]12OC(C)=O` [12-0-tetradecanoylphorbol-13-acetate], for which the “effect on ODC activity” value was “induces ODC activity”.
Regarding `CC1=C(/C=C/C(C)=C/C=C/C(C)=C/C(=O)O)C(C)(C)CCC1` [Retinoic acid], the “effect on ODC activity” value is listed as “inhibits this induction of ODC activity by TPA”.

The values are drawn from US5847160A, “Acetylenes disubstituted with 2-tetrahydropyranoxy-aryl and aryl of heteroaryl groups having retinoid-like biological activity” (Allergan, priority 1997, dated 1998).
